According to article PMC6222759, “Chemical Constituents from Scindapsus officinalis (Roxb.) Schott. and Their Anti–Inflammatory Activities” (Molecules : A Journal of Synthetic Chemistry and Natural …, 2018):

Legend:
[1] = test system: NO production in LPS-induced Raw 264.7 cells; assay: Anti-inflammatory activity assay against NO production (Griess) in LPS-stimulated RAW 264.7 macrophages; assay type: cell-based, mouse; details: for IC50: Mus musculus, RAW264.7, LPS (1.0 μg/mL)-induced Raw 264.7 cells, 2 h pre-incubation, 24 h stimulation, mean ± SD, n = 3, read-out: IC50 NO (inhibitory effect on NO production); for Anti-inflammatory activity against nitric oxide production (in words): LPS-induced Raw 264.7 cells, compared with positive control dexamethasone
Method: (Raw 264.7 cells were subjected to compounds 3 and 7 with six different concentrations and incubated for 2 h firstly, and then stimulated by adding LPS for 24 h. Then, Griess reagents I and II were added to cell supernatants to detect the NO production levels. The cytotoxicity against macrophage Raw 264.7 cells of compounds 3 and 7 were investigated using the MTT method; NO: Inhibition rates of NO release (%); MTT: Inhibition rates of cell viability (%)).
The anti-inflammatory activity assay against NO production in RAW 264.7 mouse peritoneal macrophages was conducted mainly using the procedures described previously. […] After being stimulated for 24 h, 50 μL of cell supernatants were taken out from each well and mixed with an equal volume of Griess reagents I and II to detect the NO production levels by measuring absorbance at 570 nm. All experiments were performed in triplicate. The NO inhibition is calculated as the percentage reduction of LPS stimulation.

[2] = Cytotoxicity against macrophage Raw 264.7 cells (MTT assay); details: mouse
Method: (§1) The cytotoxicity against macrophage Raw 264.7 cells was investigated using the MTT assay. Briefly, after the Raw 264.7 cells were treated with the test compounds for 24 h, 50 μL of MTT (5 mg/mL) was added to each well, and the cells were incubated for an additional 4 h. After the formazan crystals formed, cell supernatants were removed and 100 μL of DMSO was added to dissolve the crystals. Absorbance for each well was analyzed in the same way as that for NO inhibition assay.

[3] = test system: macrophage Raw 264.7 cells; assay: as above; details: MTT method; concentration of 20 μM
Method: as §1

SMILES	IC50 [1] [µM]	inhibition at 24 h, 20 µM ([2]; Raw 264.7 macrophage cells) [%]	Anti-inflammatory activity against nitric oxide production (in words) [1]	Cell toxicity against macrophage Raw 264.7 cells (in words) [3]	inhibition at 24 h, 20 µM [2] [%]
CC(C)=C[C@@H]1CC=C[C@]1(C)OC1O[C@H](CO)[C@@H](O)[C@H](O)[C@H]1O (relative stereo) [Compound 1, (rel)-(1R, 5R)-1-Methyl-5-(2-methylprop-1-en-1-yl)cyclopent-2-en-1-O-β-D-glucopyranoside]	> 100	1.8	–	–	–
C=CCc1ccc(OC2O[C@H](CO)[C@@H](O[C@H]3[C@H](O)[C@@H](O)[C@H](OCC4(CC)CC4)O[C@@H]3CO)[C@H](O)[C@H]2O)c(OC)c1 (stereo partly drawn) [Compound 2, 2-Methoxy-4-(prop-2-enyl)-1″-(1-ethylcyclopropyl) methanol phenyl O-β-D-glucopyranosyl-(4→4)-β-D-glucopyranoside]	> 100	-0.5	–	–	–
COC(=O)/C=C1/C[C@H](O)[C@H](OC(=O)C=Cc2ccc(O)c(O)c2)[C@H]1O [Compound 3, (Z)-(1S,2S,5S)-2,5-Dihydroxy-3-(2-methoxy-2-oxoethylidene)cyclopentyl 3-(3,4-dihydroxyphenyl) acrylate]	12.2 ± 0.8	4.7	moderate inhibitory effects	neither showed any cell toxicity	–
O=C(O)/C=C/c1ccc(O)c(O)c1 [Compound 4, caffeic acid]	> 100	–	–	–	1.1
OC[C@H]1O[C@@H](OCCc2ccccc2)[C@H](O)[C@@H](O)[C@@H]1O [Compound 5, 2-phenylethyl β-D-Glucopyranoside]	> 100	4.5	–	–	–
CCCCCCOC1O[C@H](CO)[C@@H](O)[C@H](O)[C@H]1O (stereo partly drawn) [Compound 6, hexyl-O-β-D-Glucopyranoside]	> 100	1.2	–	–	–
COC(=O)c1cc(O)c(O)c(O)c1 [Compound 7, methyl gallate]	18.9 ± 0.3	–	moderate inhibitory effects	neither showed any cell toxicity	2.4
C[C@@H]1C[C@H]2[C@@H]3CCC4=CC(=O)C=C[C@]4(C)[C@@]3(F)[C@@H](O)C[C@]2(C)[C@@]1(O)C(=O)CO [Dexamethasone, dexamethasone, reference compound]	2.2 ± 0.02	–	–	–	–
